Experimental data: ChEMBL document CHEMBL3045879, “Isolation of long-chain esters from the rhizome of Polygonatum verticillatum by potent tyrosinase inhibition” (Med Chem Res, 2013)

Biological target: T1, Tyrosinase (Agaricus bisporus, UniProt O42713)
T1 sequence (O42713 whole entry): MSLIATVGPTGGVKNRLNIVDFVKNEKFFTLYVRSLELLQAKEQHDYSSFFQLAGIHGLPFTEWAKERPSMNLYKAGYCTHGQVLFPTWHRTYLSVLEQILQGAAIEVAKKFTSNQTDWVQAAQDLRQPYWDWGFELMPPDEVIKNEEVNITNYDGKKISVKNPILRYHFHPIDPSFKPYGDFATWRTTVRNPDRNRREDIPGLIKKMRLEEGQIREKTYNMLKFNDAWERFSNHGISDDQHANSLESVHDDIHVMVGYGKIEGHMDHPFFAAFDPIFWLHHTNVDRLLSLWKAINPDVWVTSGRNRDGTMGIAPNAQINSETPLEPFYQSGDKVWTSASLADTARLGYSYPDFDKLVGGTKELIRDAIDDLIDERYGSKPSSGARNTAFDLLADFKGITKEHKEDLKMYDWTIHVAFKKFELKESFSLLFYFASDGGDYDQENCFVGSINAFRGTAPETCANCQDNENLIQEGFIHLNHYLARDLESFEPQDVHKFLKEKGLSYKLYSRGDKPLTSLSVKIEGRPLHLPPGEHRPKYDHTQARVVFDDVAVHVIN
Assay: Inhibition of Agaricus bisporus (mushroom) tyrosinase assessed as decrease in dopachrome formation using L-DOPA as substrate preincubated with enzyme for 10 min prior to substrate addition measured for 10 min by microplate reader analysis

IC50 | Structure (SMILES)
22.3 µM | CCCCCCCCCCCCCCC(=O)OCCC [PROPYL PENTADECANOATE]
9.45 µM | CCCCCCCCCCCCCCC(=O)OCC(O)CO (configuration not stated) [2',3'-DIHYDROXY PROPYL PENTADECANOATE]
